Data on 13 molecules can be found in US20240239790A1, “7-Morpholino-1,6-Naphthyridin-5-yl Derivatives and Pharmaceutical Compositions Thereof Useful as DNA-PK Inhibitor” (adMare Therapeutics Society, priority 2021, published 2024).

Data set [1] has as its target T1, DNA-PK phosphorylation at Serine 2056 (Homo sapiens, UniProt P78527).
T1 construct: FaDu cells were purchased from ATCC; host or cells: FaDu
Briefly: Cellular Assay for Inhibition of DNA-PK Phosphorylation at Serine 2056 in FaDu cells (sandwich ELISA, neocarzinostatin). It is filed as cell-based. To be noted: pSer2056 DNA-PK. In outline: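 pSer2056 and total DNA-PK were measured by sandwich ELISA in BCA-normalised FaDu lysates. Cells had 1 h compound exposure (0.3% DMSO), then 2 h with 1 μg/mL final neocarzinostatin. IC50 was fitted (variable slope) to % inhibition scaled against NCS-stimulated and DMSO-only controls.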
For orientation: ELISA stands for enzyme-linked immunosorbent assay.

The subject of data set [2] is pDNA-PK induction in HCT116 tumour spheroids. Briefly: Multicellular tumour spheroid + radiation, pDNA-PK (ser2056) inhibition, immunohistochemical endpoint, HCT116. To be noted: Homo sapiens, 20 Gy, 20% O2. It is filed as cell-based. As for the experimental part: Multicellular tumour spheroids determination of compound inhibition of pDNA-PK induction following radiation. Tumour spheroids were grown to approximately 0.5 mm in diameter and irradiated with 20 Gy in combination with inhibitor test compounds to determine their potency. Inhibitor concentration for 50% reduction in pDNA-PK induction (IC50) was determined via immunohistochemical staining in spheroid cryosections taken 2 hours following radiation.
Spheroid+radiation pDNA-PK. Radiation: 20 Gy. Drug: serial dilution 5 or 10 μM down to 3.5 nM (11 wells). Spheroids: 3-6 spheroids per well (300-500 μm diameter). 20% 02 and 5% CO2. 96 well plate format.
Protocol: pre-incubate 1 hours with drug, irradiate with 20 Gy, post-incubate 2 hours with drug, freeze and cryosection ×3 replicates.
Endpoint: fluorescent immunostin pDNA-PK ser2056 and image on microscope.
Analysis: determine EC50 concentration that decreases pDNA-PK induction by 50% after radiation.
Multicellular tumour spheroids determination of compound inhibition of pDNA-PK induction following radiation. Tumour spheroids were grown to approximately 0.5 mm in diameter and irradiated with 20 Gy in combination with inhibitor test compounds to determine their potency. Inhibitor concentration for 50% reduction in pDNA-PK induction (IC50) was determined via immunohistochemical staining in spheroid cryosections taken 2 hours following radiation. For cell survival endpoint 8 Gy radiation was used and 3 hours following radiation spheroids were dissociated, counted and plated for colony forming endpoint.
Spheroid+radiation pDNA-PK. Radiation: 20 Gy. Drug: serial dilution 5 or 10 μM down to 3.5 nM (11 wells). Spheroids: 3-6 spheroids per well (300-500 μm diameter). 20% 02 and 5% CO2. 96 well plate format. Endpoint: fluorescent immunostain pDNA-PK ser2056 and image on microscope. Analysis: determine EC50 concentrations that decreases pDNA-PK induction by 50% after irradiation.
Multicellular tumour spheroids were used to determine potency of test compounds in a 3D tissue environment using inhibition of pDNA-PK induction following radiation or cell survival as the endpoint. For the pDNA-PK endpoint HCT116 or FaDU tumour spheroids were grown to approximately 0.5 mm in diameter and irradiated with 20 Gy in combination with inhibitor test compounds to determine their potency. Experiments were carried out in 96 well plates containing 0.7 mls of MEM media containing 10% FBS and 10 mM glucose under 20% O2 & 5% CO2 at 37° C. Following dilution of compounds 1:1000 from DMSO stocks, compounds were serially diluted from 10 μM down to 3.5 nM and 5-10 spheroids added. 96 well plates were constantly stirred to avoid spheroids settling during the course of the experiment. The inhibitor concentration for 50% reduction in pDNA-PK induction (EC50) was determined via immunohistochemical staining in spheroid cryosections taken 2 hours following radiation using anti-pDNA-PK (ser 2056) and fixed immediately in formalin following sectioning. For cell survival endpoint 8 Gy radiation was used and, 3 hours following radiation, spheroids were dissociated, counted and plated for colony forming endpoint. Data presented in the table compound potency as EC50 [μM].

For another data set, the target named is T2, DNA-PK (Homo sapiens, UniProt P78527).
T2 construct: purchased Invitrogen PR9107A
Briefly: DNA-PK Assay for Biochemical Enzymatic Inhibition (ADP Glo Kinase assay). Particulars: DNA-PK enzyme. An outline of the steps:
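Human DNA-PK (25 ng) preincubated 15 min with compounds (ten three-fold dilutions) in HEPES pH 7.5, MgCl2, KCl, calf thymus DNA buffer, then substrate 434.4 μM and ATP 64.4 μM (final) for 60 min at room temperature. ADP-Glo luminescence; percent inhibition fitted by four-parameter regression for IC50.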
In general terms: In ADP-Glo the light output rises with the ADP produced.

Data set [3] concerns pH2AX induction in HCT116 ATM-/- multicellular tumour spheroids. Briefly: Prodrug Radiation Sensitization in Multicellular Tumour Spheroids, inhibition of pH2AX induction following radiation. It counts as cell-based. To be noted: Homo sapiens, HCT-116, 20 Gy. An outline of the steps:
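Endpoint: pH2AX (ser 139) or pDNA-PK (ser 2056) in cryosections fixed 1 or 2 h after 20 Gy, comparing oxygenated outer with hypoxic inner layers. Spheroids of ~0.5 mm (HCT116, FaDu; ATM-deficient cells used) held at 20% or 5% O2, 37 °C, stirred. Prodrug range 3.5 nM–10 μM.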

The subject of a further data set is FaDu cell line. Briefly: Prodrug Activation in Hypoxic Stirred Tumour Cell Suspensions. To be noted: 10 μM, 4 hours.
The mark [4] stands for this setting: neocarzinostatin 1 μg/mL, Table 1.
Setting [5] is: HCT-116, 2 h, spheroids, Example 8, read-out: Cell line: HCT116 Immunohistochemical endpoint pDNA-PK inhibition EC50.
Where [6] appears, read: HCT-116, 2 hours following radiation, Example 9 Study 2, read-out: Spheroid Cell line: HCT116 Immunohistochemical endpoint pDNA-PK inhibition EC50.
Where [7] appears, read: HCT-116, Spheroid, Cell Line: HCT115 (so in the source), 2 hours following radiation, Example 7, read-out: EC50, Immunohistochemical endpoint, pDNA-PK inhibition.

The structures appear in SMILES notation. Where two headings read alike, the source gives them in different places. Some results are limits rather than exact numbers.

Protocol for FaDu cell line: Prodrug compounds were assayed to determine their stability and rate of activation in stirred cell suspensions under 0.2 vs 5% oxygen. Compounds were diluted 1:1000 from DMSO stocks to 10 μM final concentration in tumour cell suspensions (1% by cell volume) in MEM media containing 10% FBS, 10 mM glucose & 3.7 g/L sodium bicarbonate. Cell lines assayed included A253, A549, Detroit562, FaDu, HCT116, HEP G2, HT29, SCC25, SCC9, SiHa & TC32. Compounds and cells were then incubated for 4 hours under constant mixing at 37° C. under 5% CO2 and either 0.2 or 5% O2. Following the incubation period cellular activation of the compounds was assayed via MeOH extraction and HPLC quantification.

Regarding `COC(=O)c1cnc2cc(N3CCOCC3)nc(O[C@H]3CC[C@@H](n4ccnc4)CC3)c2c1` [Compound 164, methyl 5-(((1s,4s)-4-(1H-imidazol-1-yl)cyclohexyl)oxy)-7-morpholino-1,6-naphthyridine-3-carboxylate], the half-maximal inhibitory concentration (IC50) (in general, the concentration needed to halve the response being measured) in data set [1] (setting [4]) lay in the range of 1 to 10 µM; on DNA-PK (Table 1), 0.001 to 0.01 µM. In addition, the 50% effective concentration (EC50) in data set [2] (setting [5]), in data set [2] (setting [6]) and in data set [2] (setting [7]) was 1 to 10 µM each time.
As to `CCCS(=O)(=O)NC(=O)c1cnc2cc(N3CCOCC3)nc(O[C@H]3CC[C@@H](n4ccnc4)CC3)c2c1` [Compound 173, 5-(((1s,4s)-4-(1H-imidazol-1-yl)cyclohexyl)oxy)-7-morpholino-N-(propylsulfonyl)-1,6-naphthyridine-3-carboxamide], the figures for the IC50 (in data set [1] (setting [4]); on DNA-PK (Table 1)) were 10 to 30 µM and 0.001 to 0.01 µM, respectively. Moreover, the EC50 in data set [2] (setting [5]), in data set [2] (setting [6]) and in data set [2] (setting [7]) was 10 to 100 µM in each case.
Turning to `O=C(NS(=O)(=O)C1CC1)c1cnc2cc(N3CCOCC3)nc(O[C@H]3CC[C@@H](n4ccnc4)CC3)c2c1` [Compound 174, 5-(((1s,4s)-4-(1H-imidazol-1-yl)cyclohexyl)oxy)-N-(cyclopropylsulfonyl)-7-morpholino-1,6-naphthyridine-3-carboxamide], the IC50 lay in the range of 10 to 30 µM in data set [1] (setting [4]) and 0.001 to 0.01 µM on DNA-PK (Table 1). Besides, the EC50 in data set [2] (setting [5]), in data set [2] (setting [6]) and in data set [2] (setting [7]) was 10 to 100 µM throughout.
Take `CCOC(=O)c1cnc2cc(N3CCOCC3)nc(O[C@H]3CC[C@@H](Nc4ncc(OCC(=O)N(C)C)cn4)CC3)c2c1` [Compound 179, ethyl 5-(((1s,4s)-4-((5-(2-(dimethylamino)-2-oxoethoxy)pyrimidin-2-yl)amino)cyclohexyl)oxy)-7-morpholino-1,6-naphthyridine-3-carboxylate]: the half-inhibitory concentration (IC50) in data set [1] (setting [4]) was in the range of 1 to 10 µM; at DNA-PK (Table 1) it was 0.001 to 0.01 µM. Also, the EC50 (usually the midpoint of the concentration-response curve) is 1 to 10 µM in data set [2] (setting [5]), 10 to 100 µM in data set [2] (setting [6]) and 10 to 100 µM in data set [2] (setting [7]).
Take `CN(C)C(=O)COc1cnc(N[C@H]2CC[C@@H](Oc3nc(N4CCOCC4)cc4ncc(C(=O)O)cc34)CC2)nc1` [Compound 180, 5-(((1s,4s)-4-((5-(2-(dimethylamino)-2-oxoethoxy)pyrimidin-2-yl)amino)cyclohexyl)oxy)-7-morpholino-1,6-naphthyridine-3-carboxylic acid]: the values for the concentration for half-maximal inhibition (IC50) (in data set [1] (setting [4]); at DNA-PK (Table 1)) were 10 to 30 µM and below 0.0005 µM, respectively. Besides, the EC50 in data set [2] (setting [6]) and in data set [2] (setting [7]) was 10 to 100 µM throughout.
As to `O=C(O)COc1cnc(N[C@H]2CC[C@@H](Oc3nc(N4CCOCC4)cc4ncc(C(=O)O)cc34)CC2)nc1` [Compound 181, 5-(((1s,4s)-4-((5-(carboxymethoxy)pyrimidin-2-yl)amino)cyclohexyl)oxy)-7-morpholino-1,6-naphthyridine-3-carboxylic acid], the IC50 in data set [1] (setting [4]) is 10 to 30 µM; at DNA-PK (Table 1) it was below 0.0005 µM. The EC50 in data set [2] (setting [6]) and in data set [2] (setting [7]) was 10 to 100 µM each time.
For `O=S(=O)(Nc1cnc2cc(N3CCOCC3)nc(O[C@H]3CC[C@@H](Nc4ncccn4)CC3)c2c1)C1CCC1` [Compound 191, N-(7-morpholino-5-(((1s,4s)-4-(pyrimidin-2-ylamino)cyclohexyl)oxy)-1,6-naphthyridin-3-yl)cyclobutanesulfonamide], the figures for the IC50 (in data set [1] (setting [4]); on DNA-PK (Table 1)) were 0.1 to 1 µM and 0.001 to 0.01 µM, respectively. In addition, the EC50 in data set [2] (setting [6]) and in data set [2] (setting [7]) was 10 to 100 µM in each case.
With `CN(C)S(=O)(=O)Nc1cnc2cc(N3CCOCC3)nc(O[C@H]3CC[C@@H](Nc4ncccn4)CC3)c2c1` [Compound 194, N-[(1s,4s)-4-({3-[(dimethylsulfamoyl)amino]-7-(morpholin-4-yl)-1,6-naphthyridin-5-yl}oxy)cyclohexyl]pyrimidin-2-amine], the values for the 50% inhibitory concentration (IC50) (in data set [1] (setting [4]); on DNA-PK (Table 1)) were 0.1 to 1 µM and below 0.0005 µM, respectively. For the same molecule, the EC50 in data set [2] (setting [6]) and in data set [2] (setting [7]) was 1 to 10 µM throughout.
In the case of `O=S1(=O)CCCN1c1cnc2cc(N3CCOCC3)nc(O[C@H]3CC[C@@H](Nc4ncccn4)CC3)c2c1` [Compound 195, 2-(7-morpholino-5-(((1s,4s)-4-(pyrimidin-2-ylamino)cyclohexyl)oxy)-1,6-naphthyridin-3-yl)isothiazolidine 1,1-dioxide], the IC50 in data set [1] (setting [4]) lay in the range of 1 to 10 µM; at DNA-PK (Table 1) it was 0.01 to 0.15 µM. The EC50 in data set [2] (setting [6]) and in data set [2] (setting [7]) was 10 to 100 µM each time.
Take `NC(=O)Nc1cnc2cc(N3CCOCC3)nc(O[C@H]3CC[C@@H](Nc4ncccn4)CC3)c2c1` [Compound 196, 1-(7-morpholino-5-(((1s,4s)-4-(pyrimidin-2-ylamino)cyclohexyl)oxy)-1,6-naphthyridin-3-yl)urea]: the figures for the IC50 (in data set [1] (setting [4]); at DNA-PK (Table 1)) were 0.1 to 1 µM and 0.001 to 0.01 µM, respectively. Further, the EC50 in data set [2] (setting [6]) and in data set [2] (setting [7]) was 1 to 10 µM throughout.
Regarding `c1ccc(CSc2cnc3cc(N4CCOCC4)nc(O[C@H]4CC[C@@H](Nc5ncccn5)CC4)c3c2)cc1` [Compound 200c, N-((1s,4s)-4-((3-(benzylthio)-7-morpholino-1,6-naphthyridin-5-yl)oxy)cyclohexyl)pyrimidin-2-amine], the IC50 is 10 to 30 µM in data set [1] (setting [4]) and 0.01 to 0.15 µM at DNA-PK (Table 1). Further, the concentration for a half-maximal effect (EC50) in data set [2] (setting [6]) and in data set [2] (setting [7]) was 10 to 100 µM each time.
Take `CSc1cnc2cc(N3CCOCC3)nc(O[C@H]3CC[C@@H](Nc4ncccn4)CC3)c2c1` [Compound 200d, N-((1s,4s)-4-((3-(methylthio)-7-morpholino-1,6-naphthyridin-5-yl)oxy)cyclohexyl)pyrimidin-2-amine]: the IC50 in data set [1] (setting [4]) was in the range of 0.1 to 1 µM; on DNA-PK (Table 1) it was 0.001 to 0.01 µM. The concentration for a half-maximal effect (EC50) in data set [2] (setting [6]) and in data set [2] (setting [7]) was 1 to 10 µM in each case.
As to `Cn1c(COc2cnc3cc(N4CCOCC4)nc(O[C@H]4CC[C@@H](NC(=O)c5ncccn5)CC4)c3c2)cnc1[N+](=O)[O-]` [LFA116, N-[4-[[3-[(3-Methyl-2-nitro-imidazol-4-yl)methoxy]-7-morpholino-1,6-naphthyridin-5-yl]oxy]cyclohexyl]pyrimidine-2-carboxamide], the results for the IC50 (in data set [1] (Table 2); on DNA-PK (Table 2)) were 10 to 30 µM and 0.01 to 0.15 µM, respectively. Also, the half-maximal effective concentration (EC50) is 0.01 to 0.5 µM in data set [3] (5% O2, inner layers, read-out: Prodrug 5% O2 Inner layers EC50); 1 to 10 µM in data set [3] (5% O2, outer layers, read-out: Prodrug 5% O2 Outer layers EC50); 1 to 10 µM in data set [3] (20% O2, outer layers, read-out: Prodrug 20% O2 Outer layers EC50). In the data set on FaDu cell line (0.2% O2), the “Fraction of prodrug converted to active form, Hypoxic 0.2% O2” value is “A (A is 0.15 to 1)”. Further, the “Fraction of prodrug converted to active form, Oxic 5% O2” value in the data set on FaDu cell line (5% O2) is given as “C (C is 0.02 to 0.05)”.
